Measured values from patent US20140220069A1, “ACTIVE INGREDIENT DERIVED FROM TORULASPORA DELBRUECKII AND COSMETIC USE FOR IMPROVING AND/OR REPAIRING THE BARRIER FUNCTION OF THE SKIN” (SOCIETE INDUSTRIELLE LIMOUSINE D'APPLICATION BIOLOGIQUE, priority 2011, published 2014).

What was measured:
E-cadherin = experiment: Synthesis of E-cadherin on reconstructed epidermis (immunohistological marking, image analysis); format: cell-based, human
Method: (§1) The procedure used to validate the agonist and the antagonist of the nAChRs is illustrated below for the synthesis of loricrin on reconstructed epidermis. It also applies to the synthesis of E-cadherin on reconstructed epidermis. The inserts comprising the epidermis under construction are placed in a culture medium containing: • 1,000 μM of mecamylamine (reversible antagonist of the nACHRs) or • 500 μM of nicotine (reversible agonist of the nACHRs).
(§2) On D0, the human keratinocytes are cultivated in a culture medium and then inoculated on an insert.
(§3) On D13 and/or D18, the inserts are recovered, fixed, dehydrated, and incorporated into paraffin.
(§4) Next, cuts are made, and then an immunohistological marking of the loricrin or the E-cadherin is done.
(§5) The display is then produced on a microscope coupled to an image analysis system. The intensity of the fluorescence (green color) is proportional to the synthesis of loricrin or cadherin.

loricrin [1] = experiment: Synthesis of loricrin by Western Blot on normal human keratinocytes in a single layer; format: cell-based; conditions: for effect on the synthesis of human keratinocyte loricrin in a single layer: human keratinocytes in a single layer
Method: The test is done on normal human keratinocytes, according to the operating procedure described in Item A.II of the part on the evaluation of the cosmetic effectiveness.
It was accomplished by Western Blot on normal human keratinocytes that are isolated from foreskins, according to the operating procedure described below.
On D0, the human keratinocytes are inoculated and then incubated at 37° C.
The cells are then incubated at 37° C.
On D7, the cellular extracts are recovered, and the Western Blot metering is carried out.

loricrin [2] = experiment: Synthesis of loricrin on reconstructed epidermis (immunohistological marking, image analysis); format: cell-based, human; conditions: for Synthesis of Loricrin: D18, untreated control 100%; for synthesis of loricrin relative to the untreated control: mecamylamine 1,000 μM, nicotine 500 μM
Method: as §1
On D18, the inserts are recovered, fixed, dehydrated, and incorporated into paraffin.
Cuts are made, and then an immunohistological marking of the loricrin is done.
Visualization is then done on a microscope coupled to an image analysis system. The intensity of the fluorescence (green color) is proportional to the synthesis of loricrin.
as §2, §3, §4, §5

Structure (SMILES) | effect on the synthesis of E-cadherin on reconstructed epidermis (E-cadherin) | Change in loricrin synthesis versus control (loricrin [1]; 350 μM, normal human keratinocytes, Western Blot on D7) | effect on the synthesis of human keratinocyte loricrin in a single layer (loricrin [1]) | Synthesis of Loricrin (loricrin [2]; 1,000 μM) | synthesis of loricrin relative to the untreated control (loricrin [2]) | Ratio of Loricrin/Control (%) (loricrin [1]) | Synthesis of Loricrin (loricrin [2]; 500 μM)
CNC1(C)C2CCC(C2)C1(C)C (stereo not shown) [Mecamylamine, mecamylamine] | inhibiting effect | −57% | inhibiting effect | 53% | reduced | – | –
CN1CCCC1c1cccnc1 (stereo not shown) [Nicotine, nicotine] | stimulating effect | – | stimulating effect | – | increased | +51% | 113%
